Measurements: patent US11034718B2, “C-3 novel triterpenone with C-17 reverse amide derivatives as HIV inhibitors” (HETERO LABS LIMITED, priority 2015, dated 2021)
Structures can show the parent of a compound that is named as a salt. Where two headings read alike, the source gives them in different places.

Assays:
Type in all cases: cell-based
HIV-1 strain 92HT599 = assay: Antiviral activity against HIV-1 strain 92HT599 in MT2 cells (p24 estimation); details: HIV-1 92HT599, ~96 hours
In short: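 Percent inhibition versus vehicle controls came from p24 quantified in supernatant aliquots. These were taken after ~96 h incubation of compound (DMSO ≤1%) with MT2 cells infected at 10 TCID50/30,000 cells.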

HIV-1 pNL4-3 WT = assay: Antiviral activity against pNL4-3/WT strain in MT4 cells (p24 estimation); details: Human immunodeficiency virus 1, MT4, 96 h, read-out: pNL4-3 WT IC50
Method: (§1) Example 78: Evaluation of Compounds Antiviral Activity Against pNL4-3/WT & V7A Strains in MT4 Cells
(§2) MT4 cells were Transfected with HIV-1 Plasmid (pNL4-3-WT & V7A) (Cells were incubating with required number of TCID50 of HIV-1 for 1.5 h at 37° C.). After infection, the infected cells were plated at the concentration of 3×10^4 cells per well in 96 well plate. Test compound was added to the test plate in defined format with the final concentration of DMSO is not more than 1%. Incubation was carried out in CO2 incubator for 4 days for viral infection. At the end of incubation period an aliquot from each well was taken for p24 estimation. p24 estimation was carried out using Advance biosciences kit as per the procedure detailed by supplier.

HIV-1 pNL4-3 V7A = assay: Antiviral activity against pNL4-3/V7A strain in MT4 cells (p24 estimation); details: Human immunodeficiency virus 1, MT4, 96 h, read-out: pNL4-3 V7A IC50
Method: as §1, §2

[1] = Human immunodeficiency virus 1, 0% serum binding assay, read-out: IC50 0% serum
[2] = Human immunodeficiency virus 1, 40% serum binding assay, read-out: IC50 40% serum

| SMILES | IC50 (HIV-1 strain 92HT599; [1]) | IC50 (HIV-1 strain 92HT599; [2]) | IC50 (HIV-1 pNL4-3 WT) | IC50 (HIV-1 pNL4-3 V7A) |
| --- | --- | --- | --- | --- |
| CC(C)C1=C2[C@H]3CC[C@@H]4[C@@]5(C)CC[C@H](OC(=O)[C@H]6C[C@@H](C(=O)O)C6(C)C)C(C)(C)[C@@H]5CC[C@@]4(C)[C@]3(C)CC[C@@]2(NC(=O)C(C)(C)NC(=O)c2ccc(Cl)cc2)CC1=O [Example 1, (1R,3S)-3-((((3aR,5aR,5bR,7aR,9S,11aR,11bR,13aS)-3a-(2-(4-chlorobenzamido)-2-methylpropanamido)-1-isopropyl-5a,5b,8,8,11a-pentamethyl-2-oxo-3,3a,4,5,5a,5b,6,7,7a,8,9,10,11,11a,11b,12,13,13a-octadecahydro-2H-cyclopenta[a]chrysen-9-yl)oxy)carbonyl)-2,2-dimethylcyclobutane-1-carboxylic acid] | < 3 nM | < 50 nM | < 5 nM | < 10 nM |
| CC(C)C1=C2[C@H]3CC[C@@H]4[C@@]5(C)CC[C@H](OC(=O)[C@H]6C[C@@H](C(=O)O)C6(C)C)C(C)(C)[C@@H]5CC[C@@]4(C)[C@]3(C)CC[C@@]2(NC(=O)C(C)(C)NC(=O)c2cnccn2)CC1=O [Example 5, (1R,3S)-3-((((3aR,5aR,5bR,7aR,9S,11aR,11bR,13aS)-1-isopropyl-5a,5b,8,8,11a-pentamethyl-3a-(2-methyl-2-(pyrazine-2-carboxamido)propanamido)-2-oxo-3,3a,4,5,5a,5b,6,7,7a,8,9,10,11,11a,11b,12,13,13a-octadecahydro-2H-cyclopenta[a]chrysen-9-yl)oxy)carbonyl)-2,2-dimethylcyclobutane-1-carboxylic acid] | < 3 nM | 50 to 200 nM | < 5 nM | < 10 nM |
| Cc1cnc(C(=O)NC(C)(C)C(=O)N[C@@]23CC[C@]4(C)[C@H](CC[C@@H]5[C@@]6(C)CC[C@H](OC(=O)[C@H]7C[C@@H](C(=O)O)C7(C)C)C(C)(C)[C@@H]6CC[C@]54C)C2=C(C(C)C)C(=O)C3)cn1 [Example 7, (1R,3S)-3-((((3aR,5aR,5bR,7aR,9S,11aR,11bR,13aS)-1-isopropyl-5a,5b,8,8,11a-pentamethyl-3a-(2-methyl-2-(5-methylpyrazine-2-carboxamido)propanamido)-2-oxo-3,3a,4,5,5a,5b,6,7,7a,8,9,10,11,11a,11b,12,13,13a-octadecahydro-2H-cyclopenta[a]chrysen-9-yl)oxy)carbonyl)-2,2-dimethylcyclobutane-1-carboxylic acid] | < 3 nM | < 50 nM | < 5 nM | < 10 nM |
| Cc1nc(C)c(C(=O)NC(C)(C)C(=O)N[C@@]23CC[C@]4(C)[C@H](CC[C@@H]5[C@@]6(C)CC[C@H](OC(=O)[C@H]7C[C@@H](C(=O)O)C7(C)C)C(C)(C)[C@@H]6CC[C@]54C)C2=C(C(C)C)C(=O)C3)s1 [Example 14, (1R,3S)-3-((((3aR,5aR,5bR,7aR,9S,11aR,11bR,13aS)-3a-(2-(2,4-dimethylthiazole-5-carboxamido)-2-methylpropanamido)-1-isopropyl-5a,5b,8,8,11a-pentamethyl-2-oxo-3,3a,4,5,5a,5b,6,7,7a,8,9,10,11,11a,11b,12,13,13a-octadecahydro-2H-cyclopenta[a]chrysen-9-yl)oxy)carbonyl)-2,2-dimethylcyclobutane-1-carboxylic acid] | < 3 nM | < 50 nM | < 5 nM | 10 to 50 nM |
| CC(C)C1=C2[C@H]3CC[C@@H]4[C@@]5(C)CC[C@H](OC(=O)[C@H]6C[C@@H](C(=O)O)C6(C)C)C(C)(C)[C@@H]5CC[C@@]4(C)[C@]3(C)CC[C@@]2(NC(=O)C(C)(C)NC(=O)c2ccc3[nH]c(-c4cnccn4)nc3c2)CC1=O [Example 15, (1R,3S)-3-((((3aR,5aR,5bR,7aR,9S,11aR,11bR,13aS)-1-isopropyl-5a,5b,8,8,11a-pentamethyl-3a-(2-methyl-2-(2-(pyrazin-2-yl)-1H-benzo[d]imidazole-5-carboxamido)propanamido)-2-oxo-3,3a,4,5,5a,5b,6,7,7a,8,9,10,11,11a,11b,12,13,13a-octadecahydro-2H-cyclopenta[a]chrysen-9-yl)oxy)carbonyl)-2,2-dimethylcyclobutane-1-carboxylic acid] | < 3 nM | < 50 nM | < 5 nM | > 50 nM |
| CC(C)C1=C2[C@H]3CC[C@@H]4[C@@]5(C)CC[C@H](OC(=O)[C@H]6C[C@@H](C(=O)O)C6(C)C)C(C)(C)[C@@H]5CC[C@@]4(C)[C@]3(C)CC[C@@]2(NC(=O)C(C)(C)NC(=O)c2nccn2C)CC1=O [Example 16, (1R,3S)-3-((((3aR,5aR,5bR,7aR,9S,11aR,11bR,13aS)-1-isopropyl-5a,5b,8,8,11a-pentamethyl-3a-(2-methyl-2-(1-methyl-1H-imidazole-2-carboxamido)propanamido)-2-oxo-3,3a,4,5,5a,5b,6,7,7a,8,9,10,11,11a,11b,12,13,13a-octadecahydro-2H-cyclopenta[a]chrysen-9-yl)oxy)carbonyl)-2,2-dimethylcyclobutane-1-carboxylic acid] | < 3 nM | 50 to 200 nM | 5.01 to 10 nM | > 50 nM |
| CC(C)C1=C2[C@H]3CC[C@@H]4[C@@]5(C)CC[C@H](OC(=O)[C@H]6C[C@@H](C(=O)O)C6(C)C)C(C)(C)[C@@H]5CC[C@@]4(C)[C@]3(C)CC[C@@]2(NC(=O)C(C)(C)NC(=O)c2cc(C(C)C)n[nH]2)CC1=O [Example 17, (1R,3S)-3-((((3aR,5aR,5bR,7aR,9S,11aR,11bR,13aS)-1-isopropyl-3a-(2-(3-isopropyl-1H-pyrazole-5-carboxamido)-2-methylpropanamido)-5a,5b,8,8,11a-pentamethyl-2-oxo-3,3a,4,5,5a,5b,6,7,7a,8,9,10,11,11a,11b,12,13,13a-octadecahydro-2H-cyclopenta[a]chrysen-9-yl)oxy)carbonyl)-2,2-dimethylcyclobutane-1-carboxylic acid] | < 3 nM | < 50 nM | < 5 nM | < 10 nM |
| CC(C)C1=C2[C@H]3CC[C@@H]4[C@@]5(C)CC[C@H](OC(=O)[C@H]6C[C@@H](C(=O)O)C6(C)C)C(C)(C)[C@@H]5CC[C@@]4(C)[C@]3(C)CC[C@@]2(NC(=O)C(C)(C)NC(=O)c2ccc(N3CCOCC3)cc2)CC1=O [Example 18, (1R,3S)-3-((((3aR,5aR,5bR,7aR,9S,11aR,11bR,13aS)-1-isopropyl-5a,5b,8,8,11a-pentamethyl-3a-(2-methyl-2-(4-morpholinobenzamido)propanamido)-2-oxo-3,3a,4,5,5a,5b,6,7,7a,8,9,10,11,11a,11b,12,13,13a-octadecahydro-2H-cyclopenta[a]chrysen-9-yl)oxy)carbonyl)-2,2-dimethylcyclobutane-1-carboxylic acid] | < 3 nM | < 50 nM | < 5 nM | < 10 nM |
| Cc1cccnc1C(=O)NC(C)(C)C(=O)N[C@@]12CC[C@]3(C)[C@H](CC[C@@H]4[C@@]5(C)CC[C@H](OC(=O)[C@H]6C[C@@H](C(=O)O)C6(C)C)C(C)(C)[C@@H]5CC[C@]43C)C1=C(C(C)C)C(=O)C2 [Example 29, (1R,3S)-3-((((3aR,5aR,5bR,7aR,9S,11aR,11bR,13aS)-1-isopropyl-5a,5b,8,8,11a-pentamethyl-3a-(2-methyl-2-(3-methylpicolinamido)propanamido)-2-oxo-3,3a,4,5,5a,5b,6,7,7a,8,9,10,11,11a,11b,12,13,13a-octadecahydro-2H-cyclopenta[a]chrysen-9-yl)oxy)carbonyl)-2,2-dimethylcyclobutane-1-carboxylic acid] | – | – | < 5 nM | 10 to 50 nM |
| CC(C)C1=C2[C@H]3CC[C@@H]4[C@@]5(C)CC[C@H](OC(=O)[C@H]6C[C@@H](C(=O)O)C6(C)C)C(C)(C)[C@@H]5CC[C@@]4(C)[C@]3(C)CC[C@@]2(NC(=O)C(C)(C)NC(=O)OC(C)(C)C)CC1=O [Example 75] | < 3 nM | < 50 nM | – | – |
| CC(C)C1=C2[C@H]3CC[C@@H]4[C@@]5(C)CC[C@H](OC(=O)[C@H]6C[C@@H](C(=O)O)C6(C)C)C(C)(C)[C@@H]5CC[C@@]4(C)[C@]3(C)CC[C@@]2(NC(=O)C(C)(C)NC(=O)[C@@H]2CCCN2)CC1=O [Example 76, (1R,3S)-3-((((3aR,5aR,5bR,7aR,9S,11aR,11bR,13aS)-1-isopropyl-5a,5b,8,8,11a-pentamethyl-3a-(2-methyl-2-((S)-pyrrolidine-2-carboxamido)propanamido)-2-oxo-3,3a,4,5,5a,5b,6,7,7a,8,9,10,11,11a,11b,12,13,13a-octadecahydro-2H-cyclopenta[a]chrysen-9-yl)oxy)carbonyl)-2,2-dimethylcyclobutane-1-carboxylic acid hydrochloride] | < 3 nM | 50 to 200 nM | – | – |
